Columns and labels:
Assay type in all cases: in vivo, Sprague-Dawley rats
[1] = tested on: 5-HT; assay: Microdialysis assay of monoamines in hypothalamus of conscious rats: 5-HT; details: L-tryptophan 100 mg/kg i.p. at 150 min, single animal
Protocol: (§1) A David Kopf stereotaxic instrument was used to implant the probe unilaterally in the hypothalamus at coordinates rostral -1.5 mm, lateral -1.3 mm, and ventral -9.0 mm (Paxinos and Watson, 1986). After a 48 hour recovery period, rats were placed in a large plastic bowl with a mounted liquid swivel system (CMA/120 system for freely moving animals, Bioanalytical Systems, West Lafayette, IN). Filtered artificial cerebrospinal fluid (CSF) (150 mM NaCl, 3.0 mM KCl, 1.7 mM CaCl2, and 0.9 mM MgCl2) was perfused through the probe at a rate of […]. The output dialysate line was fitted to a tenport HPLC valve with a 20 µl loop. At the end of each 30 minute sampling period, dialysate collected in the loop was injected on an analytical column (Spherisorb 3 µ ODS2, 2X150 mm, Keystone Scientific).
(§2) The method used to measure monoamines was as described by Perry and Fuller (1992). Briefly, dialysate collected in the 20 µl loop was assayed for 5-HT, NE and DA. The 20 µl injection went onto the column with a mobile phase which resolved NE, DA, and 5-HT: 75 mM potassium acetate, 0.5 mM ethylenediaminetetraacetic acid, 1.4 mM sodium octanesulfonic acid and 8% methanol, pH 4.9. The mobile phase for the amine column was delivered with a flow programmable pump at an initial flow rate of 0.2 ml/min increasing to 0.3 ml/min at 5 min then decreasing back to 0.2 ml/min at 26 min with a total run time of 30 min. Flow programming was used to elute the 5-HT within a 25 min time period. The electrochemical detector (EG&G, Model 400) for the amine column was set at a potential of 400 mV and a sensitivity of 0.2 nA/V. The data was collected and analyzed with a Hewlett-Packard HP1000 chromatography system which measured peak heights and calculated sample concentrations. Basal levels were measured for at least 90 minutes prior to drug administration.
(§3) Extracellular levels of the amines in microdialysates were calculated by comparing peak heights with those of 50 pmole standards. The mean value of the four samples immediately preceding drug administration served as the basal level for each experiment and data was converted to percent of basal. Paired t-tests were used to compare the mean of the basal values from the time point immediately preceding drug administration to those of each time point thereafter.

[2] = tested on: NE; assay: Microdialysis assay of monoamines in hypothalamus of conscious rats: NE; details: percent of baseline, pindolol s.c. infusion 50 mg/kg/hr from 120 min, single animal
Protocol: as §1, §2
Extracellular levels of the amines in microdialysates were calculated by comparing peak heights with those of 50 pmole standards. […]

[3] = tested on: DA; assay: Microdialysis assay of monoamines in hypothalamus of conscious rats: DA; details: percent of baseline, pindolol s.c. infusion 50 mg/kg/hr from 120 min, single animal
Protocol: as §1, §2, §3

SMILES	5-HT ([1]; Test 1, 180 min)	5-HT ([1]; Test 1, 210 min)	5-HT ([1]; Test 1, 240 min)	5-HT ([1]; Test 1, 270 min)	NE (%) ([2]; Test 2, 150 min)	NE (%) ([2]; Test 2, 210 min)	NE (%) ([2]; Test 2, 240 min)	DA (%) ([3]; Test 2, 150 min)	DA (%) ([3]; Test 2, 180 min)	DA (%) ([3]; Test 2, 210 min)	DA (%) ([3]; Test 2, 240 min)
N[C@@H](Cc1c[nH]c2ccccc12)C(=O)O [L-tryptophan]	88.5% of basal	83.6% of basal	76.3% of basal	73.9% of basal							
CC(C)NCC(O)COc1cccc2[nH]ccc12 (racemic) [pindolol, 4-(2-hydroxy-3-isopropylaminopropoxy)-indole]					221.5%	232.5%	261.9%	87.2%	73.2%	70.3%	68.5%
